Assays:
Format in all cases: in vivo, rat
[1] = tested on: diabetic rats induced by alloxan; assay: Hypoglycemiant activity in diabetic rats induced by alloxan, 15 days oral treatment then follow-up without treatment; settings: for plasmatic levels of glycemia: mean ± EPM
Experimental: The induction of diabetes in animals was done by using alloxan. The animals stayed in fasting for 24 hours before receiving injections of alloxan, so that the animals became more susceptive to diabetes. After a pilot study, the dose of alloxan that was used was 40 mg/kg injected via intravenous in caudal vein. Alloxan was diluted in sodium citrate 0.05M pH 4.5 and the injected volume was 500. During the four hours after the injection, the animals received glucose solution 5% via oral (ad libidum) in order to prevent from seizures and death, what is common in hypoglycemia. On the first two days after diabetes induction, the animals received an insulin injection (100 μl—diluted 1/10) at every 24 hs via subcutaneous (FIG. 3). This procedure guarantees animals to survive during the disease acute phase enabling the study. […] To use in the animals, it was employed corresponding doses, considering animals body mass, which is about 250 mg/kg of hydroalcoholic extract, 55 mL of infusion/rat and 25 mg/kg of RA. The animals received treatment via oral (v.o.), being maintained during a period of 40 days. The first 15 days evaluated by receiving treatment and the subsequent days with no treatment, so that it was possible to evaluate the potential to maintain the glycemic level. The obtained results are represented in the charts from FIGS. 4 to 7. As it can be observed in FIG. 4, the glycemic levels were monitored during 15 alternate days. After 15 days, the treatment was suspended (ST) and it was evaluated during 5, 10, 15 and 40 days. The data represent the mean±EPM, P<0.0001, when compared to the answer obtained for the groups DTE versus CD and CD versus CN (Anova followed by the Turkey-Kramer test). In FIG. 5, glycemic levels were monitored during 15 alternate days. After 15 days, the treatment was suspended (ST) and it was evaluated during 5, 10, 15 and 40 days. The data represent the mean±EPM, P<0.0001, when compared to the answer obtained for the groups DTAR versus CD and CD versus CN (Anova followed by the Turkey-Kramer test). In FIG. 6, glycemic levels were monitored during 15 alternate days. After 15 days, the treatment was suspended (ST) and it was evaluated during 5, 10, 15 and 40 days. The data represent the mean±EPM, P<0.0001, when compared to the answer obtained for the groups DTC versus CD and CD versus CN (Anova followed by the Turkey-Kramer test). In FIG. 7, glycemic levels were monitored during 15 alternate days. After 15 days, the treatment was suspended (ST) and it was evaluated during 5, 10, 15 and 40 days. The data represent the mean±EPM, P<0.0001, when compared to the answer obtained for the groups treated versus CD. (Anova followed by the Turkey-Kramer test).

[2] = tested on: diabetic rats induced by alloxan; assay: Glycemia monitored for 4 h (60, 120 and 240 minutes) in diabetic rats, chlorpropamide as positive control (FIG. 8); settings: 25 mg/kg v.o., chlorpropamide 40 mg/kg as positive control (FIG. 8)
Experimental: FIG. 8—Graphic of the variation in plasmatic levels of glycemia (mg/dL), observed in the different experimental groups: Diabetic treated with hydroalcoholic extract (DTE, 250 mg/kg, v.o.), Diabetic treated with Rosmarinic Acid (DTRA, 25 mg/kg, v.o.), Diabetic treated with drugs in the market (Clorpropamida, 40 mg/kg), Diabetic Control (DC) and Normoglycemic Control (NC).
The induction of diabetes in animals was done by using alloxan. The animals stayed in fasting for 24 hours before receiving injections of alloxan, so that the animals became more susceptive to diabetes. After a pilot study, the dose of alloxan that was used was 40 mg/kg injected via intravenous in caudal vein. Alloxan was diluted in sodium citrate 0.05M pH 4.5 and the injected volume was 500. During the four hours after the injection, the animals received glucose solution 5% via oral (ad libidum) in order to prevent from seizures and death, what is common in hypoglycemia. On the first two days after diabetes induction, the animals received an insulin injection (100 μl—diluted 1/10) at every 24 hs via subcutaneous (FIG. 3). This procedure guarantees animals to survive during the disease acute phase enabling the study.
In FIG. 8, glycemic levels were monitored after 60, 120 and 240 minutes. […]

normal rats = assay: Glycemic level in normal rats

O=C(/C=C/c1ccc(O)c(O)c1)O[C@H](Cc1ccc(O)c(O)c1)C(=O)O [RA, rosmarinic acid]
maintenance of the reduced glycemic level (result in words) ([1]; 25 mg/kg v.o., 15 days treatment, followed to 40 days without treatment (FIG. 5)): in addition of reducing, it kept the glycemic level to the end of the experience | plasmatic levels of glycemia ([1]; 5 ST: 5 days with no treatment after the 15 days of treatment): 112.5 ± 5.00 mg/dL | plasmatic levels of glycemia ([1]; 10 ST: 10 days with no treatment after the 15 days of treatment): 101.5 ± 19.13 mg/dL | plasmatic levels of glycemia ([1]; 15 ST: 15 days with no treatment after the 15 days of treatment): 103.5 ± 10.78 mg/dL | plasmatic levels of glycemia ([1]; 40 ST: 40 days with no treatment after the 15 days of treatment): 109.3 ± 9.87 mg/dL | effect on level of plasmatic glycemic in diabetic rats (result in words) ([1]; diabetic rats): reducing the level of plasmatic glycemic in diabetic rats | plasmatic levels of glycemia ([1]; evaluated day 0, v.o.: infusion 55 mL/rat, extract 250 mg/kg, RA 25 mg/kg): 362.6 ± 101.52 mg/dL | plasmatic levels of glycemia ([1]; evaluated day 1 of treatment, v.o.: infusion 55 mL/rat, extract 250 mg/kg, RA 25 mg/kg): 136.6 ± 44.96 mg/dL | plasmatic levels of glycemia ([1]; evaluated day 3 of treatment, v.o.: infusion 55 mL/rat, extract 250 mg/kg, RA 25 mg/kg): 114.0 ± 8.46 mg/dL | plasmatic levels of glycemia ([1]; evaluated day 5 of treatment, v.o.: infusion 55 mL/rat, extract 250 mg/kg, RA 25 mg/kg): 71.5 ± 22.66 mg/dL | plasmatic levels of glycemia ([1]; evaluated day 7 of treatment, v.o.: infusion 55 mL/rat, extract 250 mg/kg, RA 25 mg/kg): 124.5 ± 27.75 mg/dL | plasmatic levels of glycemia ([1]; evaluated day 9 of treatment, v.o.: infusion 55 mL/rat, extract 250 mg/kg, RA 25 mg/kg): 100.1 ± 12.31 mg/dL | plasmatic levels of glycemia ([1]; evaluated day 11 of treatment, v.o.: infusion 55 mL/rat, extract 250 mg/kg, RA 25 mg/kg): 108.0 ± 13.31 mg/dL | plasmatic levels of glycemia ([1]; evaluated day 13 of treatment, v.o.: infusion 55 mL/rat, extract 250 mg/kg, RA 25 mg/kg): 92.1 ± 16.89 mg/dL | plasmatic levels of glycemia ([1]; evaluated day 15 of treatment, v.o.: infusion 55 mL/rat, extract 250 mg/kg, RA 25 mg/kg): 102.0 ± 12.60 mg/dL | effectiveness on glycemia monitored for 4 h (result in words) [2]: it was verified the effectiveness | effect on glycemic level in normal rats (result in words) (normal rats): not reducing the glycemic level in normal rats

— patent publication US20110166226A1, “PROCESS FOR OBTAINING AN EXTRACT RICH IN ROSMARINIC ACID (RA) FROM THE PLANT ORIGANUM VULGARE AND ITS USE FOR THE TREATMENT OF DIABETES” (ACEF S/A, priority 2008, published 2011)
